Source: ChEMBL document CHEMBL4270495, “Oleanane-, ursane-, and quinone methide friedelane-type triterpenoid derivatives: Recent advances in cancer treatment” (Eur J Med Chem, 2017)

Legend:
RAW264.7 = experiment: Anti-inflammatory activity in mouse RAW264.7 cells assessed as inhibition of nitric oxide production; type: functional, cell-based
MDA-MB-231 = experiment: Cytotoxicity in human MDA-MB-231 cells assessed as reduction in cell viability incubated for 24 hrs by MTT assay; type: functional, cell-based; conditions: MDA-MB-231, 24 h
HL-60 = experiment: Cytotoxicity in human HL60 cells assessed as reduction in cell viability incubated for 24 hrs by MTT assay; type: functional, cell-based; conditions: HL-60, 24 h
HL60/ADR = experiment: Cytotoxicity in human HL60/ADR cells assessed as reduction in cell viability incubated for 24 hrs by MTT assay; type: functional, cell-based
MCF7 [1] = experiment: Cytotoxicity in human MCF7 cells assessed as reduction in cell viability incubated for 24 hrs by MTT assay; type: functional, cell-based; conditions: MCF7, 24 h
A549 [2] = experiment: Cytotoxicity in human A549 cells assessed as reduction in cell viability incubated for 24 hrs by MTT assay; type: functional, cell-based; conditions: A549, 24 h
A549 [3] = experiment: Cytotoxicity in human A549 cells assessed as reduction in cell viability incubated for 48 hrs by MTT assay; type: functional, cell-based; conditions: A549, 48 h
T-24 = experiment: Cytotoxicity in human T24 cells assessed as reduction in cell viability incubated for 48 hrs by MTT assay; type: functional, cell-based; conditions: T-24, 48 h
[4] = Cytotoxicity in human SPCA2 cells assessed as reduction in cell viability incubated for 48 hrs by MTT assay; type: functional, cell-based; conditions: SPCA2, 48 h
HUVEC = experiment: Cytotoxicity in HUVEC cells assessed as reduction in cell viability incubated for 48 hrs by MTT assay; type: cell-based; conditions: Homo sapiens
AGS = experiment: Cytotoxicity in human AGS cells assessed as reduction in cell viability incubated for 24 hrs by MTT assay; type: functional, cell-based
HepG2 [5] = experiment: Cytotoxicity in human HepG2 cells assessed as reduction in cell viability incubated for 24 hrs by MTT assay; type: functional, cell-based; conditions: HepG2, 24 h
HeLa [6] = experiment: Cytotoxicity in human HeLa cells assessed as reduction in cell viability incubated for 24 hrs by MTT assay; type: functional, cell-based
[7] = Cytotoxicity in human HELF cells assessed as reduction in cell viability incubated for 24 hrs by MTT assay; type: cell-based
SGC-7901 = experiment: Cytotoxicity in human SGC7901 cells assessed as reduction in cell viability incubated for 48 hrs by MTT assay; type: functional, cell-based; conditions: SGC-7901, 48 h
HepG2 [8] = experiment: Cytotoxicity in human HepG2 cells assessed as reduction in cell viability incubated for 48 hrs by MTT assay; type: functional, cell-based; conditions: HepG2, 48 h
HeLa [9] = experiment: Cytotoxicity in human HeLa cells assessed as reduction in cell viability incubated for 48 hrs by MTT assay; type: functional, cell-based
MCF7 [10] = experiment: Cytotoxicity in human MCF7 cells assessed as reduction in cell viability; type: functional, cell-based
A-375 = experiment: Cytotoxicity in human A375 cells assessed as reduction in cell viability incubated for 24 hrs by MTT assay; type: functional, cell-based; conditions: A-375, 24 h
NCI-H446 = experiment: Cytotoxicity in human NCI-H446 cells assessed as reduction in cell viability incubated for 24 hrs by MTT assay; type: functional, cell-based; conditions: NCI-H446, 24 h
HeLa [11] = experiment: Cytotoxicity in human HeLa cells assessed as reduction in cell viability incubated for 72 hrs by CCK8 assay; type: functional, cell-based

Molecule `CC1(C)CC[C@]2(C(=O)n3ccnc3)CC[C@]3(C)[C@H](C(=O)C=C4[C@@]5(C)C=C(C#N)C(=O)C(C)(C)[C@@H]5CC[C@]43C)[C@@H]2C1` has an IC50 (RAW264.7) of 1 µM.

Work on `COC(=O)[C@]12CC[C@@H](C)[C@H](C)[C@H]1C1=CC[C@@H]3[C@@]4(C)C=C(C#N)C(=O)C(C)(C)[C@@H]4CC[C@@]3(C)[C@]1(C)CC2` yielded an IC50 (RAW264.7) of 17 µM.

With `COC(=O)[C@]12CCC(C)(C)C[C@H]1C1=CC(=O)[C@@H]3[C@@]4(C)CCC(=O)C(C)(C)[C@@H]4CC[C@@]3(C)[C@]1(C)CC2` the IC50 (MDA-MB-231) was 33.2 µM, the IC50 (HL-60) was 2850 nM and the IC50 (HL60/ADR) was 7.54 µM.

For `CC1(C)CC[C@]2(C(=O)O)CC[C@]3(C)C(=CC[C@@H]4[C@@]5(C)CC[C@H](O[C@@H]6OC[C@H](O[C@@H]7OC[C@H](O)[C@H](O)[C@H]7O)[C@H](O[C@H]7O[C@H](CO)[C@@H](O)[C@H](O)[C@@H]7O)[C@H]6O)[C@@](C)(CO)[C@@H]5CC[C@]43C)[C@H]2C1`, the IC50 (MCF7 [1]) was over 50 µM and the IC50 (A549 [2]) was 17.9 µM.

`CCOP(=O)(OCC)C(NC(=O)[C@]12CC[C@@H](C)[C@H](C)[C@H]1C1=CC[C@@H]3[C@@]4(C)C[C@@H](OC(C)=O)[C@H](OC(C)=O)[C@@](C)(COC(C)=O)[C@@H]4CC[C@@]3(C)[C@]1(C)CC2)c1ccc(Cl)cc1` (stereo not given in full) gave an IC50 (A549 [3]) of 15.7 µM, an IC50 (T-24) of 8.93 µM and an IC50 [4] of 16.1 µM. For the same molecule, the IC50 (HUVEC) was over 100 µM.

`CC(=O)O[C@H]1CC[C@]2(C)[C@H]3CC=C4[C@@H]5[C@@H](C)[C@H](C)CC[C@]5(C(=O)NCCCCN)CC[C@@]4(C)[C@]3(C)CC[C@H]2C1(C)C` showed an IC50 (AGS) of 14.1 µM, an IC50 (HepG2 [5]) of 16 µM and an IC50 (HeLa [6]) of 4.2 µM. The IC50 [7] was 25.1 µM.

Work on `C[C@@H]1CC[C@]2(C(=O)OCC(=O)N/N=C/c3ccc(Cl)cc3)CC[C@]3(C)C(=CC(=O)[C@@H]4[C@@]5(C)CC[C@H](O)[C@](C)(CO)[C@@H]5CC[C@]43C)[C@@H]2[C@]1(C)O` yielded an IC50 (SGC-7901) of over 100 µM, an IC50 (HepG2 [8]) of over 100 µM and an IC50 (HeLa [9]) of over 100 µM.

`C[C@H]1[C@H](C)CC[C@]2(C(N)=O)CC[C@]3(C)C(=CC[C@@H]4[C@@]5(C)CC[C@H](OC(=O)CCC(=O)O)C(C)(C)[C@@H]5CC[C@]43C)[C@H]12` showed an IC50 (HepG2 [5]) of 9.1 µM and an IC50 (MCF7 [10]) of 44.6 µM.

`CCOP(=O)(OCC)C(NC(=O)[C@]12CC[C@@H](C)[C@H](C)[C@H]1C1=CC[C@@H]3[C@@]4(C)C[C@@H](OC(C)=O)[C@H](OC(C)=O)[C@@](C)(COC(C)=O)[C@@H]4CC[C@@]3(C)[C@]1(C)CC2)c1ccc2ccccc2c1` (stereo not given in full) showed an IC50 (A549 [3]) of 46.3 µM, an IC50 (T-24) of 49.1 µM and an IC50 [4] of 48.7 µM. It also gave an IC50 (HUVEC) of over 100 µM.

With `COC(=O)C(CO)NC(=O)[C@]12CC[C@@H](C)[C@@](C)(O)[C@H]1C1=CC(=O)[C@@H]3[C@@]4(C)CC[C@H](OC(C)=O)[C@](C)(COC(C)=O)[C@@H]4CC[C@@]3(C)[C@]1(C)CC2` (stereo not given in full) the IC50 (HepG2 [5]) was 3.41 µM, the IC50 (A-375) was 5.99 µM and the IC50 (NCI-H446) was 3.84 µM.

`CCOP(=O)(OCC)C(NC(=O)[C@]12CC[C@@H](C)[C@H](C)[C@H]1C1=CC[C@@H]3[C@@]4(C)C[C@@H](OC(C)=O)[C@H](OC(C)=O)[C@@](C)(COC(C)=O)[C@@H]4CC[C@@]3(C)[C@]1(C)CC2)c1ccccc1Cl` (stereo not given in full) gave an IC50 (A549 [3]) of 14.9 µM, an IC50 (T-24) of 6.59 µM and an IC50 [4] of 15 µM. It also gave an IC50 (HUVEC) of over 100 µM.

In the case of `C[C@H]1[C@H](C)CC[C@]2(C#N)CC[C@]3(C)C(=CC[C@@H]4[C@@]5(C)C=C(C#N)C(=O)C(C)(C)[C@@H]5CC[C@]43C)[C@H]12`, the IC50 (RAW264.7) is reported as 1 to 7 µM.

`CC(=O)O[C@H]1CC[C@]2(C)[C@H]3CC=C4[C@@H]5[C@@H](C)[C@H](C)CC[C@]5(C(=O)NCCCCCCN)CC[C@@]4(C)[C@]3(C)CC[C@H]2C1(C)C` gave an IC50 (AGS) of 12.8 µM, an IC50 (HepG2 [5]) of 7.2 µM and an IC50 (HeLa [6]) of 3.8 µM. For the same molecule, the IC50 [7] was 14.9 µM.

`C[C@@H]1CC[C@]2(C(=O)OCC(=O)N/N=C/c3ccc([N+](=O)[O-])cc3)CC[C@]3(C)C(=CC(=O)[C@@H]4[C@@]5(C)CC[C@H](O)[C@](C)(CO)[C@@H]5CC[C@]43C)[C@@H]2[C@]1(C)O` showed an IC50 (SGC-7901) of 15.4 µM, an IC50 (HepG2 [8]) of 8.74 µM and an IC50 (HeLa [9]) of 18.8 µM.

`C[C@@H]1O[C@@H](O[C@H]2CC[C@@]3(C)[C@@H](CC[C@]4(C)[C@@H]3CC=C3[C@H]5CC(C)(C)CC[C@]5(C(=O)O)CC[C@]34C)[C@]2(C)CO)[C@H](O)[C@H](O)[C@H]1O[C@@H]1OC[C@H](O)[C@H](O)[C@H]1O` gave an IC50 (MCF7 [1]) of 42.1 µM and an IC50 (A549 [2]) of 17.3 µM.

`COC(=O)C1CCCN1C(=O)[C@]12CC[C@@H](C)[C@H](C)[C@H]1C1=CC[C@@H]3[C@@]4(C)C[C@@H](O)[C@H](O)[C@@](C)(CO)[C@@H]4CC[C@@]3(C)[C@]1(C)CC2` (stereo not given in full) gave an IC50 (HeLa [11]) of 21.3 µM.

`C[C@@H]1CC[C@]2(C(=O)NC(Cc3c[nH]c4ccccc34)C(=O)O)CC[C@]3(C)C(=CC(=O)[C@@H]4[C@@]5(C)CC[C@H](O)[C@](C)(CO)[C@@H]5CC[C@]43C)[C@@H]2[C@]1(C)O` (stereo not given in full) showed an IC50 (HepG2 [5]) of 6.11 µM, an IC50 (A-375) of 8.03 µM and an IC50 (NCI-H446) of 11.3 µM.

With `CC(=O)O[C@H]1CC[C@]2(C)[C@H]3CC=C4[C@@H]5[C@@H](C)[C@H](C)CC[C@]5(C(=O)NCCCCC(C)N)CC[C@@]4(C)[C@]3(C)CC[C@H]2C1(C)C` (stereo not given in full) the IC50 (HepG2 [5]) was 5 µM and the IC50 (MCF7 [10]) was 4.8 µM.

Molecule `C[C@@H]1O[C@@H](O[C@@H]2[C@@H](O)[C@H](O[C@H]3CC[C@@]4(C)[C@@H](CC[C@]5(C)[C@@H]4CC=C4[C@H]6CC(C)(C)CC[C@]6(C(=O)O)CC[C@]45C)[C@]3(C)CO)OC[C@@H]2O[C@H]2O[C@H](CO)[C@@H](O)[C@H](O)[C@@H]2O)[C@H](O)[C@@H](O)[C@H]1O` has an IC50 (MCF7 [1]) of over 50 µM and an IC50 (A549 [2]) of 19.6 µM.

In the case of `C[C@H]1[C@H](C)CC[C@@]23CC[C@@]4(C)[C@]5(C)CC[C@H]6C(C)(C)C(=O)C(C#N)=C[C@]6(C)C5=CC(=O)[C@]4(OC2=O)[C@H]13`, the IC50 (RAW264.7) is reported as 8 µM.

For `C[C@@H]1O[C@@H](O[C@H]2CC[C@@]3(C)[C@@H](CC[C@]4(C)[C@@H]3CC=C3[C@H]5CC(C)(C)CC[C@]5(C(=O)O)CC[C@]34C)[C@]2(C)CO)[C@H](O)[C@H](O)[C@H]1O[C@@H]1O[C@H](CO)[C@@H](O)[C@H](O)[C@H]1O`, the IC50 (MCF7 [1]) was 41.3 µM and the IC50 (A549 [2]) was 17.8 µM.

Work on `CCOP(=O)(OCC)C(NC(=O)[C@]12CC[C@@H](C)[C@H](C)[C@H]1C1=CC[C@@H]3[C@@]4(C)C[C@@H](OC(C)=O)[C@H](OC(C)=O)[C@@](C)(COC(C)=O)[C@@H]4CC[C@@]3(C)[C@]1(C)CC2)c1cccc2ccccc12` (stereo not given in full) yielded an IC50 (A549 [3]) of 54.8 µM, an IC50 (T-24) of 43.8 µM and an IC50 [4] of 46.1 µM. It also gave an IC50 (HUVEC) of over 100 µM.

`C[C@H]1[C@H](C)CC[C@]2(C(=O)n3ccnc3)CC[C@]3(C)C(=CC[C@@H]4[C@@]5(C)C=C(C#N)C(=O)C(C)(C)[C@@H]5CC[C@]43C)[C@H]12` gave an IC50 (RAW264.7) of 5 µM.

In the case of `COc1ccc(/C=N/NC(=O)COC(=O)[C@]23CC[C@@H](C)[C@@](C)(O)[C@H]2C2=CC(=O)[C@@H]4[C@@]5(C)CC[C@H](O)[C@](C)(CO)[C@@H]5CC[C@@]4(C)[C@]2(C)CC3)cc1`, the IC50 (SGC-7901) is reported as 11.3 µM, the IC50 (HepG2 [8]) is reported as 4.16 µM and the IC50 (HeLa [9]) is reported as 8.54 µM.

For `COC(=O)[C@]12CCC(C)(C)C[C@H]1[C@H]1C(=O)C=C3[C@@]4(C)C=C(C#N)C(=O)C(C)(C)[C@@H]4CC[C@@]3(C)[C@]1(C)CC2` [BARDOXOLONE METHYL], the IC50 (RAW264.7) was 4 µM.

For `O=c1[nH]cc(F)c(=O)[nH]1` [FLUOROURACIL], the IC50 (A549 [3]) was 34.5 µM, the IC50 (T-24) was 40.1 µM and the IC50 [4] was 44.3 µM. It also gave an IC50 (HUVEC) of 56 µM.
